Laboratory results: patent US20220273659A1, “HETEROCYCLIC COMPOUNDS AS KINASE INHIBITORS” (NUVATION BIO INC., priority 2019, published 2022)
Where a name gives a salt, the structure may show the parent alone. Read-outs that look alike come from different tables or passages of the source.

Legend:
CDK4 = molecular target: T1, CDK4 (Homo sapiens, UniProt P11802); test: In vitro kinase inhibition IC50, luminescence (ADP Glo), retinoblastoma substrate; type: biochemical; settings: read-out: CDK4/D1 IC50
T1 construct: purchased Invitrogen PR8064A
T1 sequence (P11802 whole entry): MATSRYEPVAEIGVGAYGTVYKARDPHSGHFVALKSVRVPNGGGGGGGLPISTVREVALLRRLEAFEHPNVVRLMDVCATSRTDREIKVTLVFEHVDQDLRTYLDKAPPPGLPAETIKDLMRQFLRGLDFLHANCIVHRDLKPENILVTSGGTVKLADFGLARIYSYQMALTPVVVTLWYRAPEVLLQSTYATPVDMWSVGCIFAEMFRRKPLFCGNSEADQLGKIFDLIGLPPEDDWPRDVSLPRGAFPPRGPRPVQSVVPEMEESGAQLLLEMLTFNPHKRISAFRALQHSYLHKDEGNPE
T1 sequence (P24385 whole entry partner): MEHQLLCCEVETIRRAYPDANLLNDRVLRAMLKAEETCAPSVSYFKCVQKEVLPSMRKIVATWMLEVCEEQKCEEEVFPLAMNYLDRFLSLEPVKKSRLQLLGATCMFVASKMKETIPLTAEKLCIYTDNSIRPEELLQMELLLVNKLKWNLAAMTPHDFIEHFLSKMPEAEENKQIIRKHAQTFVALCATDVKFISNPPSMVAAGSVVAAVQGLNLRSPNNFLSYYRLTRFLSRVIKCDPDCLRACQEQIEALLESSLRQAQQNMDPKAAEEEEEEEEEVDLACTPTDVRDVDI
How it was run: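 CDK4 enzyme (5 nM, Invitrogen) was combined with test compound and a mix of retinoblastoma substrate (1 μM) plus ATP (25 μM) in kinase buffer, 30 μL/well in 96-well half area white plates. After 2H at room temperature, ADP Glo reagent stopped the reaction for 45 min, then detection reagent was added and luminescence was read.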

CDK6 = molecular target: T2, CDK6 (Homo sapiens, UniProt Q00534); test: as above; type: biochemical; settings: read-out: CDK6/D1 IC50
T2 construct: purchased Invitrogen PR8422B
T2 sequence (Q00534 whole entry): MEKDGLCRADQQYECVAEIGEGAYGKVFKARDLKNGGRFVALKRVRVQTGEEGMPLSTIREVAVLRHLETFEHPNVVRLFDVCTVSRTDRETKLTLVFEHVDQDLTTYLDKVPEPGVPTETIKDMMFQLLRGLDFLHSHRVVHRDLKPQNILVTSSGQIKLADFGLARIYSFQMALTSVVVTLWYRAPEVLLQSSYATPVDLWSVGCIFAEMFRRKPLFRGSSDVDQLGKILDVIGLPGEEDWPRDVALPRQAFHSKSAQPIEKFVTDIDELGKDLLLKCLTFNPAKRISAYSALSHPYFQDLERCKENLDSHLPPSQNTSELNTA
T2 sequence (P24385 whole entry partner): as the sequence (P24385 whole entry partner) above
How it was run: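 Recombinant CDK6 (5 nM) with retinoblastoma substrate (1 μM) and 25 μM ATP, compound at final 0.1–200 nM, incubated 2 h at room temperature. ADP formed detected by ADP-Glo luminescence. IC50 from four-parameter logistic fit of percent inhibition.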

[1] = test system: DU4475 breast carcinoma cells; test: Cancer cell proliferation assay, single agent (cell viability); type: cell-based; settings: Homo sapiens, DU-4475; Table 4; Rb negative; treatment 144 Hr with medium change at 72 Hr; Cell Titer-Glo or resazurin
How it was run: (§1)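 Cells seeded day 1, then exposed on day 2 to 7–9 compound concentrations (e.g. 1.1 nM–10 μM); BT-549 for 24 h, MCF-7 and DU4475 for 144 h with medium change at 72 h. Viability by CellTiter-Glo or resazurin; IC50 from variable-slope sigmoidal fit.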

CDK1 (cyclin B) = molecular target: T3, CDK1 (cyclin B) (Homo sapiens, UniProt P06493); test: Z'-LYTE kinase assay; type: biochemical
T3 construct: purchased Invitrogen Life Technologies (assay service)
T3 sequence (P06493 whole entry): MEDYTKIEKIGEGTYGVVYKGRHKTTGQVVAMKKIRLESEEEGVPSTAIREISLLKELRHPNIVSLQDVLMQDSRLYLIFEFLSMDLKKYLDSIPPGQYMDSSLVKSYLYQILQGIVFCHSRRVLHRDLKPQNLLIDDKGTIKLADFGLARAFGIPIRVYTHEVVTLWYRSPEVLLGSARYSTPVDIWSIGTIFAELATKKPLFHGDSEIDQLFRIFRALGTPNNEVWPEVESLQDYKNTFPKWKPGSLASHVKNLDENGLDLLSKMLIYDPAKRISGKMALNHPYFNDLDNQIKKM
T3 sequence (P14635 whole entry partner): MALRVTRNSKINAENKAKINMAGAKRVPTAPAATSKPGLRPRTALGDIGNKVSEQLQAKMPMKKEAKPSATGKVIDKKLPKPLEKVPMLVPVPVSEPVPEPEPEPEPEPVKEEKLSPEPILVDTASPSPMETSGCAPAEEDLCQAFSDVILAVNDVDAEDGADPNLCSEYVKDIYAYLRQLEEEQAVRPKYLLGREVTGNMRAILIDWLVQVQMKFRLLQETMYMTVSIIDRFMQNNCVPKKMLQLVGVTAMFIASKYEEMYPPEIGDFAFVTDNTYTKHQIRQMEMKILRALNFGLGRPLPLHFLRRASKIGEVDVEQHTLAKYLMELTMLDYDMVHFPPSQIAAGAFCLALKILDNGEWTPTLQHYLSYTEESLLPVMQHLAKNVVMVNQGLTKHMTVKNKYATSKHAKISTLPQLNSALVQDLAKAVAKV
Description: The plates were shaken for 30 seconds, and incubated for 60 minutes at room temperature. […] The plates were read on fluorescence plate reader with Dual emission at 445 nm and 520 nm.
The following equations were used for Z′-LYTE™ Screening Assay Data Analysis.

PI3Kδ kinase = molecular target: T4, PI3Kδ kinase (Homo sapiens, UniProt O00329); test: PI3Kδ kinase assay (ADP-Glo, Reaction Biology); type: biochemical
T4 construct: purchased Reaction Biology Corporation (assay service)
T4 sequence (O00329 whole entry): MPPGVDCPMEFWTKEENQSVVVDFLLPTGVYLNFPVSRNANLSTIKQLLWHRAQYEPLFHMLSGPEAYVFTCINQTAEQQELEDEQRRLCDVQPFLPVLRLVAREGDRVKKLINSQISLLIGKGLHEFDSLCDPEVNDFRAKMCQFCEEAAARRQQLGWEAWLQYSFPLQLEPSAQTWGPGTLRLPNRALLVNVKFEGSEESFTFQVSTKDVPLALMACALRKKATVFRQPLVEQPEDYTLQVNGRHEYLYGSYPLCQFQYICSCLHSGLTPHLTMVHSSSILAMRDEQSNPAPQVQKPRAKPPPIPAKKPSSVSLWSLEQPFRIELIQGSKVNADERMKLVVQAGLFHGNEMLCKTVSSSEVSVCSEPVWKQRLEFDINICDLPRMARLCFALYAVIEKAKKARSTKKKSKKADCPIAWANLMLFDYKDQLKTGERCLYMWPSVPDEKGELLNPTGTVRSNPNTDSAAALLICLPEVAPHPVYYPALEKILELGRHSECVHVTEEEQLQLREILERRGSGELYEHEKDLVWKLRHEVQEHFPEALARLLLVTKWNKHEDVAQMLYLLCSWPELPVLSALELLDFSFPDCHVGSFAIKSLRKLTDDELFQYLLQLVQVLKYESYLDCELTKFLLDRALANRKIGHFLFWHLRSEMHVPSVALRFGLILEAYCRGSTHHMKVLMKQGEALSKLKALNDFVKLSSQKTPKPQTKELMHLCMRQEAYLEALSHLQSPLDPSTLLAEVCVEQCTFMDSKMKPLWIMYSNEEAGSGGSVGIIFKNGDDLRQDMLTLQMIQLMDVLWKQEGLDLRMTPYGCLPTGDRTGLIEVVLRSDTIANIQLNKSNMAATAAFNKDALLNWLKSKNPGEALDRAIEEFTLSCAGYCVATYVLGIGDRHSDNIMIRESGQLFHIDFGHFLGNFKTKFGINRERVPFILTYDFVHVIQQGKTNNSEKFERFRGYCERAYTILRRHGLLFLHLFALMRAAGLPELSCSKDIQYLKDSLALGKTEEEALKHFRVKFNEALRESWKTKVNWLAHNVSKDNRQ
T4 sequence (P27986 whole entry partner): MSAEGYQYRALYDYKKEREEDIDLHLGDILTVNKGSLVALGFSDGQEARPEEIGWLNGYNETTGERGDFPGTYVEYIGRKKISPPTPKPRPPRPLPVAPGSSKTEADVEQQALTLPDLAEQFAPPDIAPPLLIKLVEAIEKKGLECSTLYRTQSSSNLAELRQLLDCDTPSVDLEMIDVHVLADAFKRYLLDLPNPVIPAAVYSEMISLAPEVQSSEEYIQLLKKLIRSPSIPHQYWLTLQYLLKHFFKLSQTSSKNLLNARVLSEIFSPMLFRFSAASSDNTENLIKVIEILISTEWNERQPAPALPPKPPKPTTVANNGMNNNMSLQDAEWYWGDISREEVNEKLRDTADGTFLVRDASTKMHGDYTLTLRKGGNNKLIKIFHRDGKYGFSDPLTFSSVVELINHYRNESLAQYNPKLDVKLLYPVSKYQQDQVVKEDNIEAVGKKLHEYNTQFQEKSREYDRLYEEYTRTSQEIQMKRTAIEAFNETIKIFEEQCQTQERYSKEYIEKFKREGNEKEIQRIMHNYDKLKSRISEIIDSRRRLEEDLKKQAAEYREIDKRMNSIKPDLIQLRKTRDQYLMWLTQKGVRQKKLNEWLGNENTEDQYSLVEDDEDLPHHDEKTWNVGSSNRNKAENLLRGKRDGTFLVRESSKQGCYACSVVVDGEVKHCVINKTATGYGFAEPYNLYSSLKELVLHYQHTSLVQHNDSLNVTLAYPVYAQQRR
How it was run: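 Kinase in Tris-HCl 40 mM pH 7.5, MgCl2 20 mM, orthovanadate 3 mM, DTT 2 mM, 0.05% CHAPS, 1% DMSO, preincubated 10 min at room temperature with compound (about 0.5 nM–100 μM). ATP started a 30-min reaction at 30 °C. ADP-Glo luminescence converted to μM ADP via standard curve; IC50 from nonlinear regression.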

CDK2 (cyclin A) = molecular target: T5, CDK2 (cyclin A) (Homo sapiens, UniProt P24941); test: Z'-LYTE kinase assay; type: biochemical
T5 construct: purchased Invitrogen Life Technologies (assay service)
How it was run: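 FRET-based Z′-LYTE read-out using 1.22–10.3 ng CDK2/cyclin A with Ser/Thr 12 peptide (2 μM in the 2× mix) and ATP (31 μM as the 4× solution), in HEPES pH 7.5, MgCl2, EGTA and BRIJ-35, for 60 min at room temperature. After 1 h of development, the 445/520 nm emission was read, and percent inhibition was fitted to a four-parameter logistic curve for IC50.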

[2] = test system: MCF-7 breast adenocarcinoma cells; test: Cancer cell proliferation assay, single agent (cell viability); type: cell-based; settings: Homo sapiens, MCF7, Table 4; Rb positive; treatment 144 Hr with medium change at 72 Hr; Cell Titer-Glo or resazurin
How it was run: as §1

FMS kinase = molecular target: T6, FMS kinase (Homo sapiens, UniProt P07333); test: LanthaScreen Eu Kinase Binding Assay (ATP, fluorescent-PolyGT substrate); type: biochemical
T6 construct: purchased Invitrogen (Life Technologies)
T6 sequence (P07333 20-972): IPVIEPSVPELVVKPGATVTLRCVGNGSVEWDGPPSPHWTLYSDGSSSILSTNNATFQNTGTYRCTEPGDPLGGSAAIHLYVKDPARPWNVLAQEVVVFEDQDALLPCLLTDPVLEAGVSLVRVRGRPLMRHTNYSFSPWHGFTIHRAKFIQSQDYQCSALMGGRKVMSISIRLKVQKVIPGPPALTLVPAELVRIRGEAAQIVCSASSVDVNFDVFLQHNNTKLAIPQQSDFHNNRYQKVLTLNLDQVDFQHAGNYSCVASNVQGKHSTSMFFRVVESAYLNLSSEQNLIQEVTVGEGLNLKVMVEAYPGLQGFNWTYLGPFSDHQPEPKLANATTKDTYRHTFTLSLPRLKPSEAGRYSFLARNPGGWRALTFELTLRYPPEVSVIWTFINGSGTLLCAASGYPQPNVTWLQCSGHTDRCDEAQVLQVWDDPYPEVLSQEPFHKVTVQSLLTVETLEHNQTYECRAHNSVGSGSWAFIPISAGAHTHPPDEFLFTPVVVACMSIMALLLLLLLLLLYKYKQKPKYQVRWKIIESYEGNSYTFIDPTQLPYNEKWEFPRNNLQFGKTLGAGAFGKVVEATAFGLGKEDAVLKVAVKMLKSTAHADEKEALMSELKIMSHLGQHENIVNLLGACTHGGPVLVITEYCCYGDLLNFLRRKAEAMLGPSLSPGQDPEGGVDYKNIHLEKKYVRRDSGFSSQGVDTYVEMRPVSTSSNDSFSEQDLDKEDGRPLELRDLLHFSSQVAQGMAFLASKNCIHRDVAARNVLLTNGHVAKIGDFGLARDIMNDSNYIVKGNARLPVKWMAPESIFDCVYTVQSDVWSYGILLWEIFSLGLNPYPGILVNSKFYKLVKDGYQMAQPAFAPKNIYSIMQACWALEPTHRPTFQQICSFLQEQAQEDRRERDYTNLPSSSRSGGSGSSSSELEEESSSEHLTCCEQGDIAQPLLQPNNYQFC
How it was run: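 Kinase (1.25 nM) preincubated 10 min with 3-fold compound dilutions, then ATP 10 μM and fluorescent PolyGT substrate 200 nM added for 1 h in the dark at room temperature. Stopped with Tb-antibody (4 nM) and EDTA 20 mM; TR-FRET at 340 nm excitation, 495/520 nm emission; IC50 from four-parameter fit.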

Compound	IC50 (CDK4) [nM]	IC50 (CDK6) [nM]	IC50 [1] [nM]	IC50 (CDK1 (cyclin B); read-out: CDK1/B IC50) [nM]	IC50 (PI3Kδ kinase) [nM]	IC50 (CDK2 (cyclin A)) [nM]	IC50 [2] [nM]	IC50 (FMS kinase) [nM]	IC50 (CDK1 (cyclin B)) [nM]
CC1(C)NCCc2cc(Nc3ncc4cc(C#N)c(=O)n(C5CCCC5)c4n3)ccc21 [Compound No. 92, 8-cyclopentyl-2-((1,1-dimethyl-1,2,3,4-tetrahydroisoquinolin-6-yl)amino)-7-oxo-7,8-dihydropyrido[2,3-d]pyrimidine-6-carbonitrile]	15	6	420	118	725	16			
N#Cc1cc2cnc(Nc3ccc4c(c3)C(=O)NCC4)nc2n(C2CCCC2)c1=O [Compound No. 6, 8-cyclopentyl-7-oxo-2-((1-oxo-1,2,3,4-tetrahydroisoquinolin-7-yl)amino)-7,8-dihydropyrido[2,3-d]pyrimidine-6-carbonitrile]	8	2		> 4650	163	873	1160	< 1	
CN(C)C1CCc2ccc(Nc3ncc4cc(C#N)c(=O)n(C5CCCC5)c4n3)cc2C1 (stereo not drawn) [Compound No. 48, 8-cyclopentyl-2-((7-(dimethylamino)-5,6,7,8-tetrahydronaphthalen-2-yl)amino)-7-oxo-7,8-dihydropyrido[2,3-d]pyrimidine-6-carbonitrile]	14	6		488	945	140	945	3	
N#Cc1cc2ccc(Nc3ccc4c(c3)CNCC4)nc2n(C2CCCC2)c1=O [Compound No. 326, 1-cyclopentyl-2-oxo-7-((1,2,3,4-tetrahydroisoquinolin-7-yl)amino)-1,2-dihydro-1,8-naphthyridine-3-carbonitrile]	> 200	> 200	4240	> 5000	> 50000	> 5000	3520		
N#Cc1cc2cnc(Nc3ccc4c(c3)CCNC4)nc2n(C2CCC2)c1=O [Compound No. 91, 8-cyclobutyl-7-oxo-2-((1,2,3,4-tetrahydroisoquinolin-6-yl)amino)-7,8-dihydropyrido[2,3-d]pyrimidine-6-carbonitrile hydrochloride]	84	28	510	913	705	79			
N#Cc1cc2cnc(Nc3ccc4c(c3)CCNC4)cc2n(C2CCCC2)c1=O [Compound No. 90, 1-cyclopentyl-2-oxo-7-((1,2,3,4-tetrahydroisoquinolin-6-yl)amino)-1,2-dihydro-1,6-naphthyridine-3-carbonitrile]	132	115	4900	> 5000	4940	619			
CN1CCN(c2ccc(Nc3cc4c(cn3)cc(C#N)c(=O)n4C3CCCC3)cc2)CC1 [Compound No. 87, 1-cyclopentyl-7-((4-(4-methylpiperazin-1-yl)phenyl)amino)-2-oxo-1,2-dihydro-1,6-naphthyridine-3-carbonitrile]	58	21	6700	> 5000	549	> 3640			
CN1CCC(c2ccc(Nc3cc4c(cn3)cc(C#N)c(=O)n4C3CCCC3)cc2)CC1 [Compound No. 89, 1-cyclopentyl-7-((4-(1-methylpiperidin-4-yl)phenyl)amino)-2-oxo-1,2-dihydro-1,6-naphthyridine-3-carbonitrile]	20	10	5200	> 5000	751	874			
N#Cc1cc2cnc(Nc3ccc(N4CCNCC4)cc3)cc2n(C2CCCC2)c1=O [Compound No. 88, 1-cyclopentyl-2-oxo-7-((4-(piperazin-4-yl)phenyl)amino)-1,2-dihydro-1,6-naphthyridine-3-carbonitrile]	34	12	1560	> 5000	905	1100			
N#Cc1cc2cnc(Nc3ccc4c(c3)CNCC4)cc2n(C2CCCC2)c1=O [Compound No. 95, 1-cyclopentyl-2-oxo-7-((1,2,3,4-tetrahydroisoquinolin-7-yl)amino)-1,2-dihydro-1,6-naphthyridine-3-carbonitrile]	> 200	> 184	1500	> 5000	4700	2040	3580		
N#Cc1cc2cnc(Nc3ccc4c(c3)CCNC4)nc2n([C@H]2C[C@@H]3CC[C@H]2C3)c1=O (relative stereo) [Compound No. 354, 8-((S,2S,4R)-bicyclo[2.2.1]heptan-2-yl)-7-oxo-2-(1,2,3,4-tetrahydroisoquinolin-6-ylamino)-7,8-dihydropyrido[2,3-d]pyrimidine-6-carbonitrile]	12	12	320	534		176	120	3.5	
N#Cc1cc2ccc(Nc3ccc(N4CCNCC4)cc3)nc2n(C2CCCC2)c1=O [Compound No. 94, 1-cyclopentyl-2-oxo-7-((4-(piperazin-1-yl)phenyl)amino)-1,2-dihydro-1,8-naphthyridine-3-carbonitrile]	> 200	> 200	485	> 5000	> 50000	> 5000	1940		

The next lines start with the values.

IC50 (CDK4) [nM]	IC50 (CDK6) [nM]	IC50 [1] [nM]	IC50 (CDK1 (cyclin B); read-out: CDK1/B IC50) [nM]	IC50 (PI3Kδ kinase) [nM]	IC50 (CDK2 (cyclin A)) [nM]	IC50 [2] [nM]	IC50 (FMS kinase) [nM]	IC50 (CDK1 (cyclin B)) [nM]	Compound
> 200	> 200	5660	> 5000	825	> 5000	3330	64		CS(=O)(=O)N1CCC[C@H](Nc2ncc3cc(C#N)c(=O)n(C4CCCC4)c3n2)C1 [Compound No. 364, (S)-8-cyclopentyl-2-((1-(methylsulfonyl)piperidin-3-yl)amino)-7-oxo-7,8-dihydropyrido[2,3-d]pyrimidine-6-carbonitrile]
34	3.4	1390		1980	28	405		331	CS(=O)(=O)N1CCC(Nc2ncc3cc(C#N)c(=O)n(C4CCC4)c3n2)CC1 [Compound No. 368, 8-cyclobutyl-2-((1-(methylsulfonyl)piperidin-4-yl)amino)-7-oxo-7,8-dihydropyrido [2,3-d] pyrimidine-6-carbonitrile]
1.5	13	1420			< 1	255	> 5000	598	Cc1ccc(S(=O)(=O)N2CCC(Nc3ncc4cc(C#N)c(=O)n(C5CCCC5)c4n3)CC2)cc1 [Compound No. 360, 8-cyclopentyl-7-oxo-2-((1-tosylpiperidin-4-yl)amino)-7,8-dihydropyrido[2,3-d]pyrimidine-6-carbonitrile]
6	15	2680			82	765	90	1280	CS(=O)(=O)N1CC[C@@H](Nc2ncc3cc(C#N)c(=O)n(C4CCCC4)c3n2)[C@H](F)C1 [Compound No. 362, 8-cyclopentyl-2-((3R,4R)-3-fluoro-1-(methylsulfonyl)piperidin-4-ylamino)-7-oxo-7,8-dihydropyrido[2,3-d]pyrimidine-6-carbonitrile]
1.7	12	1660			17	265	138	233	CS(=O)(=O)N1CC[C@H](Nc2ncc3cc(C#N)c(=O)n(C4CCCC4)c3n2)[C@H](F)C1 [Compound No. 363, 8-cyclopentyl-2-((3R,4S)-3-fluoro-1-(methylsulfonyl)piperidin-4-ylamino)-7-oxo-7,8-dihydropyrido[2,3-d]pyrimidine-6-carbonitrile]
